Test results from patent US20060252807A1, “Novel ortho-terphenyl inhibitors of p38 kinase and methods of treating inflammatory disorders” (Kalypsys, Inc., priority 2005, published 2006).

Biological target: T1, active p38 alpha enzyme (Upstate Biotechnology) (Homo sapiens, UniProt Q16539)
T1 construct: purchased Upstate Biotechnology
Assay: p38α biochemical assay (ATP turnover, luminescent detection, Cambrex PKlight)
Settings: p38α kinase; Table 1 Biological Activity
Procedure, shortened: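 Luminescent PKlight readout of total ATP consumption follows a 2 h, 30C kinase reaction. Enzyme and MapkapK2 substrate run with 1.4 uM ATP (final) in buffer containing Mg2+, Ca2+, chelators, glycerol, reducing agent and BSA; test compounds added by pintool from DMSO.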

T1 sequence (Q16539 whole entry): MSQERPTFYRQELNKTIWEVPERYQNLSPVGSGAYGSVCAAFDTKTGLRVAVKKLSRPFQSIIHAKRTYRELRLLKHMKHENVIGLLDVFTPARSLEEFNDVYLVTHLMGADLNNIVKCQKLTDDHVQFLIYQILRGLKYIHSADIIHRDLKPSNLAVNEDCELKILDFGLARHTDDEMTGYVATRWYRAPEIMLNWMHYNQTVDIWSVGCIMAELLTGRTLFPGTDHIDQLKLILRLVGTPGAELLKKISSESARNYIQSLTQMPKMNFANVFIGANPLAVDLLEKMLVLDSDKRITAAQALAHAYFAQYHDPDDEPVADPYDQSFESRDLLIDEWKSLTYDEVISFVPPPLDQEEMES

Row | Structure (SMILES) | IC50
1 | CCOC(=O)N1CCC(NCc2nc(-c3ccc(F)cc3)c(-c3nc(C(=O)NC(C)C)cs3)o2)CC1 [Example 1164] | > 1 µM
2 | CC(C)NC(=O)c1csc(-c2oc(CNCCCNC(=O)OC(C)(C)C)nc2-c2ccc(F)cc2)n1 [Example 1165] | > 1 µM
3 | CC(C)NC(=O)c1csc(-c2oc(CNCc3ccc(C(F)(F)F)cc3)nc2-c2ccc(F)cc2)n1 [Example 1166] | > 1 µM
4 | CC(C)NC(=O)c1csc(-c2oc(CNCc3cccc(C(F)(F)F)c3)nc2-c2ccc(F)cc2)n1 [Example 1167] | > 1 µM
5 | CC(C)NC(=O)c1csc(-c2oc(CNCc3ccc(Cl)c(Cl)c3)nc2-c2ccc(F)cc2)n1 [Example 1168] | > 1 µM
6 | CC(C)NC(=O)c1csc(-c2oc(CNCc3ccc(Cl)cc3Cl)nc2-c2ccc(F)cc2)n1 [Example 1169] | > 1 µM
7 | CC(C)NC(=O)c1csc(-c2oc(CNC3CCN(Cc4ccccc4)C3)nc2-c2ccc(F)cc2)n1 (stereo not shown) [Example 1170] | ≤ 1 µM
8 | CC(C)NC(=O)c1csc(-c2oc(CNCc3ccc(N(C)C)cc3)nc2-c2ccc(F)cc2)n1 [Example 1172] | > 1 µM
9 | COc1ccc(CNCc2nc(-c3ccc(F)cc3)c(-c3nc(C(=O)NC(C)C)cs3)o2)cc1O [Example 1173] | ≤ 1 µM
10 | CC(C)NC(=O)c1csc(-c2oc(CNC3CCN(Cc4ccccc4)CC3)nc2-c2ccc(F)cc2)n1 [Example 1174] | > 1 µM
11 | CC(C)NC(=O)c1csc(-c2oc(CNCc3ccccc3OC(F)(F)F)nc2-c2ccc(F)cc2)n1 [Example 1175] | ≤ 1 µM
12 | COc1ccc(C(=O)CNCc2nc(-c3ccc(F)cc3)c(-c3nc(C(=O)NC(C)C)cs3)o2)cc1 [Example 1177] | > 1 µM
13 | CC(C)NC(=O)c1csc(-c2oc(CNCCc3ccc4c(c3)OCO4)nc2-c2ccc(F)cc2)n1 [Example 1178] | > 1 µM
14 | CC(C)NC(=O)c1csc(-c2oc(CNCCC(c3ccccc3)c3ccccc3)nc2-c2ccc(F)cc2)n1 [Example 1179] | > 1 µM
15 | Cc1ccc(S(=O)(=O)NCCNCc2nc(-c3ccc(F)cc3)c(-c3nc(C(=O)NC(C)C)cs3)o2)cc1 [Example 1180] | ≤ 1 µM
16 | CC(C)NC(=O)c1csc(-c2oc(CBr)nc2-c2ccc(F)cc2)n1 [Example 1181] | > 1 µM
17 | C#CCN(C)Cc1nc(-c2ccc(F)cc2)c(-c2nc(C(=O)NC(C)C)cs2)o1 [Example 1187] | > 1 µM
18 | CCN(CC)Cc1nc(-c2ccc(F)cc2)c(-c2nc(C(=O)NC(C)C)cs2)o1 [Example 1188] | > 1 µM
19 | CCCN(C)Cc1nc(-c2ccc(F)cc2)c(-c2nc(C(=O)NC(C)C)cs2)o1 [Example 1189] | > 1 µM

Row | Structure (SMILES) | IC50
20 | CC(C)NC(=O)c1csc(-c2oc(CN(C)CCO)nc2-c2ccc(F)cc2)n1 [Example 1190] | > 1 µM
21 | CC(C)CN(C)Cc1nc(-c2ccc(F)cc2)c(-c2nc(C(=O)NC(C)C)cs2)o1 [Example 1192] | > 1 µM
22 | CCN(Cc1nc(-c2ccc(F)cc2)c(-c2nc(C(=O)NC(C)C)cs2)o1)C(C)C [Example 1193] | > 1 µM
23 | CCN(CCO)Cc1nc(-c2ccc(F)cc2)c(-c2nc(C(=O)NC(C)C)cs2)o1 [Example 1195] | > 1 µM
24 | CC(C)NC(=O)c1csc(-c2oc(CN3CCSC3)nc2-c2ccc(F)cc2)n1 [Example 1196] | > 1 µM
25 | CC(C)NC(=O)c1csc(-c2oc(CN3CCCCC3C)nc2-c2ccc(F)cc2)n1 (stereo not shown) [Example 1197] | > 1 µM
26 | CC(C)NC(=O)c1csc(-c2oc(CN3CCN(C)CC3)nc2-c2ccc(F)cc2)n1 [Example 1199] | > 1 µM
27 | CC(C)NC(=O)c1csc(-c2oc(CN3CCCC3CO)nc2-c2ccc(F)cc2)n1 (stereo not shown) [Example 1200] | > 1 µM
28 | CC(C)NC(=O)c1csc(-c2oc(CN3CCC[C@@H]3CO)nc2-c2ccc(F)cc2)n1 [Example 1201] | > 1 µM
29 | CCCN(CCC)Cc1nc(-c2ccc(F)cc2)c(-c2nc(C(=O)NC(C)C)cs2)o1 [Example 1203] | > 1 µM
30 | CC(C)NC(=O)c1csc(-c2oc(CN3CCSCC3)nc2-c2ccc(F)cc2)n1 [Example 1204] | > 1 µM
31 | CC(C)NC(=O)c1csc(-c2oc(CN(CCO)CCO)nc2-c2ccc(F)cc2)n1 [Example 1205] | > 1 µM
32 | CC1CC(C)CN(Cc2nc(-c3ccc(F)cc3)c(-c3nc(C(=O)NC(C)C)cs3)o2)C1 (stereo not shown) [Example 1206] | > 1 µM
33 | CC(C)NC(=O)c1csc(-c2oc(CN(C)C3CCCCC3)nc2-c2ccc(F)cc2)n1 [Example 1207] | > 1 µM
34 | CC(C)NC(=O)c1csc(-c2oc(CN3C(C)CCCC3C)nc2-c2ccc(F)cc2)n1 (stereo not shown) [Example 1208] | > 1 µM
35 | CC(C)NC(=O)c1csc(-c2oc(CN3C[C@@H](C)N[C@@H](C)C3)nc2-c2ccc(F)cc2)n1 [Example 1210] | > 1 µM
36 | COC[C@@H]1CCCN1Cc1nc(-c2ccc(F)cc2)c(-c2nc(C(=O)NC(C)C)cs2)o1 [Example 1212] | > 1 µM
37 | CC(C)NC(=O)c1csc(-c2oc(CN3CC(C)OC(C)C3)nc2-c2ccc(F)cc2)n1 (stereo not shown) [Example 1213] | > 1 µM
38 | CCN(CCCCO)Cc1nc(-c2ccc(F)cc2)c(-c2nc(C(=O)NC(C)C)cs2)o1 [Example 1215] | > 1 µM

Further lines, results first:

Row | IC50 | Structure (SMILES)
39 | > 1 µM | COc1cc(CNCc2nc(-c3ccc(F)cc3)c(-c3nc(C(=O)NC(C)C)cs3)o2)cc(OC)c1 [Example 1161]
40 | > 1 µM | COc1ccc(CNCc2nc(-c3ccc(F)cc3)c(-c3nc(C(=O)NC(C)C)cs3)o2)cc1OC [Example 1162]
41 | > 1 µM | CC(C)NC(=O)c1csc(-c2oc(CNCC(=O)c3ccccc3)nc2-c2ccc(F)cc2)n1 [Example 1163]
42 | > 1 µM | COc1ccc(OC)c(CCNCc2nc(-c3ccc(F)cc3)c(-c3nc(C(=O)NC(C)C)cs3)o2)c1 [Example 1171]
43 | ≤ 1 µM | CC(C)NC(=O)c1csc(-c2oc(CNCCc3ccc(S(N)(=O)=O)cc3)nc2-c2ccc(F)cc2)n1 [Example 1176]
44 | ≤ 1 µM | CC(C)NC(=O)c1csc(-c2oc(CN(C)C)nc2-c2ccc(F)cc2)n1 [Example 1182]
45 | ≤ 1 µM | CC(C)NC(=O)c1csc(-c2oc(CN3CCOCC3)nc2-c2ccc(F)cc2)n1 [Example 1183]
46 | > 1 µM | CCN(C)Cc1nc(-c2ccc(F)cc2)c(-c2nc(C(=O)NC(C)C)cs2)o1 [Example 1186]
47 | > 1 µM | CC(C)NC(=O)c1csc(-c2oc(CN(C)CCC#N)nc2-c2ccc(F)cc2)n1 [Example 1191]
48 | > 1 µM | CCCCN(C)Cc1nc(-c2ccc(F)cc2)c(-c2nc(C(=O)NC(C)C)cs2)o1 [Example 1194]
49 | > 1 µM | CC1CCN(Cc2nc(-c3ccc(F)cc3)c(-c3nc(C(=O)NC(C)C)cs3)o2)CC1 [Example 1198]
50 | > 1 µM | CCCCN(CC)Cc1nc(-c2ccc(F)cc2)c(-c2nc(C(=O)NC(C)C)cs2)o1 [Example 1202]
51 | > 1 µM | CC(C)NC(=O)c1csc(-c2oc(CN3CCC(N(C)C)C3)nc2-c2ccc(F)cc2)n1 (stereo not shown) [Example 1209]
52 | > 1 µM | CC(C)NC(=O)c1csc(-c2oc(CN3CCCC(CO)C3)nc2-c2ccc(F)cc2)n1 (stereo not shown) [Example 1211]
53 | > 1 µM | CC(C)NC(=O)c1csc(-c2oc(CN3CCCCC3CO)nc2-c2ccc(F)cc2)n1 (stereo not shown) [Example 1214]
54 | > 1 µM | CC(C)NC(=O)c1csc(-c2oc(CN3Cc4ccccc4C3)nc2-c2ccc(F)cc2)n1 [Example 1216]
55 | > 1 µM | CC(C)NC(=O)c1csc(-c2oc(CN(C)Cc3ccccc3)nc2-c2ccc(F)cc2)n1 [Example 1217]
